Laboratory results published in US20060223996A1, “IL-12 modulatory compounds” (Synta Pharmaceuticals Corp., priority 2004, published 2006).

System: IL-12
Assay: Human in vitro assay: inhibition of IL-12 production in IFNγ/LPS- or IFNγ/SAC-stimulated human PBMC or THP-1 cells (ELISA)
Assay type: cell-based
Conditions: read-out: IC50 Range (representative in vitro IC50 data)
How it was run: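 Sandwich ELISA for IL-12 (p70, p40) on supernatants collected 18 h after stimulation gave IC50 values; MTS monitored viability. THP-1 cells: IFNγ 100 U/mL priming 22 h, SAC 0.025%. PBMC: IFNγ 30 U/mL for 22 h plus LPS 1 μg/mL, or IFNγ 100 U/mL plus SAC 0.01%. Final DMSO 0.25%.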

SMILES | IC50 [nM]
Cc1cccc(NC(=O)Nc2cc(OCC(C)(C)O)nc(N3CCOCC3)n2)c1 [Compound 11, 1-[6-(2-Hydroxy-2-methyl-propoxy)-2-morpholin-4-yl-pyrimidin-4-yl]-3-m-tolyl-urea] | ≥ 1000
O=C1COc2ccc(NC(=O)c3cc(OCCN4CCOCC4)nc(N4CCOCC4)n3)cc2N1 [Compound 199, 2-morpholino-6-(2-morpholinoethoxy)-N-(3-oxo-3,4-dihydro-2H-benzo[b][1,4]oxazin-6-yl)pyrimidine-4-carboxamide] | ≥ 1000
O=C(Nc1cccc(N2CCCC2)c1)c1cc(OCCN2CCOCC2)nc(N2CCOCC2)n1 [Compound 278, 2-Morpholin-4-yl-6-(2-morpholin-4-yl-ethoxy)-pyrimidine-4-carboxylic acid (3-pyrrolidin-1-yl-phenyl)-amide] | < 1000
CC(C)N(C)c1cccc(NC(=O)c2cc(OCCN3CCOCC3)nc(N3CCOCC3)n2)c1 [Compound 308, 2-Morpholin-4-yl-6-(2-morpholin-4-yl-ethoxy)-pyrimidine-4-carboxylic acid [3-(isopropyl-methyl-amino)-phenyl]-amide] | ≥ 1000
Cc1ccc(NC(=O)Nc2cc(N3CCOCC3)nc(OCCN3CCOCC3)n2)cc1C [Compound 122, 1-(3,4-Dimethyl-phenyl)-3-[6-morpholin-4-yl-2-(2-morpholin-4-yl-ethoxy)-pyrimidin-4-yl]-urea] | ≥ 1000
COCCN(C)c1cc(C(=O)Nc2cccc(-n3cccn3)c2)nc(N2CCOCC2)n1 [Compound 311, 6-[(2-Methoxy-ethyl)-methyl-amino]-2-morpholin-4-yl-pyrimidine-4-carboxylic acid (3-pyrazol-1-yl-phenyl)-amide] | < 1000
CNCCOc1cc(NC(=O)Nc2cccc(C)c2)nc(N2CCOCC2)n1 [Compound 10, 1-[6-(2-Methylamino-ethoxy)-2-morpholin-4-yl-pyrimidin-4-yl]-3-m-tolyl-urea] | < 1000
O=C(Nc1cccc([N+](=O)[O-])c1)Nc1cc(OCCN2CCOCC2)nc(N2CCOCC2)n1 [Compound 128, 1-[2-Morpholin-4-yl-6-(2-morpholin-4-yl-ethoxy)-pyrimidin-4-yl]-3-(3-nitro-phenyl)-urea] | ≥ 1000
O=C(Nc1nc(OCCc2ccccn2)cc(N2CCOCC2)n1)c1ccncc1 [Compound 76, N-[4-Morpholin-4-yl-6-(2-pyridin-2-yl-ethoxy)-pyrimidin-2-yl]-isonicotinamide] | ≥ 1000
CN(C)c1ccc(NC(=O)c2cc(OCCN3CCOCC3)nc(N3CCOCC3)n2)cc1 [Compound 57, 2-Morpholin-4-yl-6-(2-morpholin-4-yl-ethoxy)-pyrimidine-4-carboxylic acid (4-dimethylamino-phenyl)-amide] | ≥ 1000
O=C(Nc1ccnc(N2CCCC2)c1)c1cc(OCCN2CCOCC2)nc(N2CCOCC2)n1 [Compound 151, 2-Morpholin-4-yl-6-(2-morpholin-4-yl-ethoxy)-pyrimidine-4-carboxylic acid (2-pyrrolidin-1-yl-pyridin-4-yl)-amide] | < 1000
NC(=O)c1ccc(NC(=O)c2cc(OCCN3CCOCC3)nc(N3CCOCC3)n2)nc1 [Compound 150, 2-Morpholin-4-yl-6-(2-morpholin-4-yl-ethoxy)-pyrimidine-4-carboxylic acid (5-carbamoyl-pyridin-2-yl)-amide] | < 1000
O=C(Nc1ccc2c(C(F)(F)F)cc(=O)oc2c1)c1cc(NCCN2CCOCC2)nc(N2CCOCC2)n1 [Compound 192, 2-morpholino-6-(2-morpholinoethylamino)-N-(2-oxo-4-(trifluoromethyl)-2H-chromen-7-yl)pyrimidine-4-carboxamide] | ≥ 1000
CC(=O)c1cccc(NC(=O)c2cc(OCCN3CCOCC3)nc(N3CCOCC3)n2)c1 [Compound 152, 2-Morpholin-4-yl-6-(2-morpholin-4-yl-ethoxy)-pyrimidine-4-carboxylic acid (3-acetyl-phenyl)-amide] | ≥ 1000
O=C(Nc1ccc2ncsc2c1)c1cc(OCCc2ccccn2)nc(N2CCOCC2)n1 [Compound 36, 2-Morpholin-4-yl-6-(2-pyridin-2-yl-ethoxy)-pyrimidine-4-carboxylic acid benzothiazol-6-ylamide] | ≥ 1000
CC(C)c1cccc(NC(=O)c2cc(OCCN3CCOCC3)nc(N3CCOCC3)n2)c1 [Compound 213, N-(3-isopropylphenyl)-2-morpholino-6-(2-morpholinoethoxy)pyrimidine-4-carboxamide] | ≥ 1000
COCCN(C)c1cc(N2CCOCC2)cc(C(=O)Nc2cccc(N(C)C)c2)n1 [Compound 157, 6-[(2-Methoxy-ethyl)-methyl-amino]-4-morpholin-4-yl-pyridine-2-carboxylic acid (3-dimethylamino-phenyl)-amide] | ≥ 1000
O=C(Nc1ccnc(Cl)c1)c1cc(OCCN2CCOCC2)nc(N2CCOCC2)n1 [Compound 149, 2-Morpholin-4-yl-6-(2-morpholin-4-yl-ethoxy)-pyrimidine-4-carboxylic acid (2-chloro-pyridin-4-yl)-amide] | ≥ 1000
COc1cccc(NC(=O)c2cc(OCCN3CCOCC3)nc(N3CCOCC3)n2)c1 [Compound 279, 2-Morpholin-4-yl-6-(2-morpholin-4-yl-ethoxy)-pyrimidine-4-carboxylic acid (3-methoxy-phenyl)-amide] | ≥ 1000

The remaining lines, values ahead:

IC50 [nM] | SMILES
< 1000 | Cc1[nH]c2ccc(NC(=O)c3cc(Nc4ccc5[nH]c(C)c(C)c5c4)nc(N4CCOCC4)n3)cc2c1C [Compound 255, N-(2,3-dimethyl-1H-indol-5-yl)-6-(2,3-dimethyl-1H-indol-5-ylamino)-2-morpholinopyrimidine-4-carboxamide]
≥ 1000 | CN(C)C(=O)c1cccc(NC(=O)c2cc(OCCN3CCOCC3)nc(N3CCOCC3)n2)c1 [Compound 53, 2-Morpholin-4-yl-6-(2-morpholin-4-yl-ethoxy)-pyrimidine-4-carboxylic acid (3-dimethylcarbamoyl-phenyl)-amide]
< 1000 | CC(=O)N1CCN(c2cc(C(=O)Nc3ccc4[nH]cc(C)c4c3)nc(N3CCOCC3)n2)CC1 [Compound 261, 6-(4-acetylpiperazin-1-yl)-N-(3-methyl-1H-indol-5-yl)-2-morpholinopyrimidine-4-carboxamide]
< 1000 | COCCN(C)c1cc(N2CCOCC2)cc(C(=O)Nc2ccc3[nH]c(C)c(C)c3c2)n1 [Compound 156, 6-[(2-Methoxy-ethyl)-methyl-amino]-4-morpholin-4-yl-pyridine-2-carboxylic acid (2,3-dimethyl-1H-indol-5-yl)-amide]
≥ 1000 | COCCN(C)c1cc(C(=O)Nc2cccc(-c3nn(C)cc3Br)c2)nc(N2CCOCC2)n1 [Compound 235, 6-[(2-Methoxy-ethyl)-methyl-amino]-2-morpholin-4-yl-pyrimidine-4-carboxylic acid [3-(4-bromo-1-methyl-1H-pyrazol-3-yl)-phenyl]-amide]
< 1000 | Cc1[nH]c2ccc(NC(=O)c3cccc(N4CCOCC4)n3)cc2c1C [Compound 168, 6-Morpholin-4-yl-pyridine-2-carboxylic acid (2,3-dimethyl-1H-indol-5-yl)-amide]
< 1000 | Cc1[nH]c2ccc(NC(=O)c3cc(NCC(=O)N4CCC(O)CC4)nc(N4CCOCC4)n3)cc2c1C [Compound 100, 6-[2-(4-Hydroxy-piperidin-1-yl)-2-oxo-ethylamino]-2-morpholin-4-yl-pyrimidine-4-carboxylic acid (2,3-dimethyl-1H-indol-5-yl)-amide]
≥ 1000 | COCCN(C)c1cc(C(=O)Nc2ccc3nc(C)ccc3c2)nc(N2CCOCC2)n1 [Compound 202, 6-((2-methoxyethyl)(methyl)amino)-N-(2-methylquinolin-6-yl)-2-morpholinopyrimidine-4-carboxamide]
< 1000 | Cc1[nH]c2ccc(NC(=O)c3cc(N4CCC(O)CC4)cc(N4CCOCC4)n3)cc2c1C [Compound 171, 4-Hydroxy-6′-morpholin-4-yl-3,4,5,6-tetrahydro-2H-[1,4′]bipyridinyl-2′-carboxylic acid (2,3-dimethyl-1H-indol-5-yl)-amide]
< 1000 | Cc1[nH]c2ccc(NC(=O)c3cc(NCCO)nc(N4CCOCC4)n3)cc2c1C [Compound 194, N-(2,3-dimethyl-1H-indol-5-yl)-6-(2-hydroxyethylamino)-2-morpholinopyrimidine-4-carboxamide]
< 1000 | Cc1[nH]c2ccc(NC(=O)c3cc(N4CCN(C)CC4)nc(N4CCOCC4)n3)cc2c1C [Compound 251, N-(2,3-dimethyl-1H-indol-5-yl)-6-(4-methylpiperazin-1-yl)-2-morpholinopyrimidine-4-carboxamide]
< 1000 | Cc1[nH]c2ccc(NC(=O)c3cc(N(C)CC(=O)N4CCCCC4)nc(N4CCOCC4)n3)cc2c1C [Compound 113, 6-[Methyl-(2-oxo-2-piperidin-1-yl-ethyl)-amino]-2-morpholin-4-yl-pyrimidine-4-carboxylic acid (2,3-dimethyl-1H-indol-5-yl)-amide]
< 1000 | Cc1[nH]c2ccc(NC(=O)c3cc(NCC(=O)N4CCCC4)nc(N4CCOCC4)n3)cc2c1C [Compound 108, 2-Morpholin-4-yl-6-(2-oxo-2-pyrrolidin-1-yl-ethylamino)-pyrimidine-4-carboxylic acid (2,3-dimethyl-1H-indol-5-yl)-amide]
≥ 1000 | Cc1[nH]c2ccc(NC(=O)c3cc(OCCN4CCOCC4)nc(N4CCOCC4)c3)cc2c1C [Compound 66, N-(2,3-Dimethyl-1H-indol-5-yl)-2-morpholin-4-yl-6-(2-morpholin-4-yl-ethoxy)-isonicotinamide]
< 1000 | CCc1c[nH]c2ccc(NC(=O)c3cc(N4CCC(C)CC4)nc(N4CCOCC4)n3)cc12 [Compound 178, 6-(4-Methyl-piperidin-1-yl)-2-morpholin-4-yl-pyrimidine-4-carboxylic acid (3-ethyl-1H-indol-5-yl)-amide]
≥ 1000 | COCCN(C)c1cc(C(=O)Nc2ccc3c(c2)CCN3C(C)=O)nc(N2CCOCC2)n1 [Compound 206, N-(1-acetylindolin-5-yl)-6-((2-methoxyethyl)(methyl)amino)-2-morpholinopyrimidine-4-carboxamide]
